Here are results for eight compounds from US20230346777A1, “USE OF SGC ACTIVATORS FOR THE TREATMENT OF OPHTHALMOLOGIC DISEASES” (Bayer Aktiengesellschaft, priority 2020, published 2023).

Data set [1] deals with T1, recombinant guanylate cyclase reporter cell line (Rattus norvegicus, UniProt P20595).
T1 construct: expressed in transfected cells; CHO by own knowledge of the cited Wunder et al. 2005
T1 sequence (P20595 1-619): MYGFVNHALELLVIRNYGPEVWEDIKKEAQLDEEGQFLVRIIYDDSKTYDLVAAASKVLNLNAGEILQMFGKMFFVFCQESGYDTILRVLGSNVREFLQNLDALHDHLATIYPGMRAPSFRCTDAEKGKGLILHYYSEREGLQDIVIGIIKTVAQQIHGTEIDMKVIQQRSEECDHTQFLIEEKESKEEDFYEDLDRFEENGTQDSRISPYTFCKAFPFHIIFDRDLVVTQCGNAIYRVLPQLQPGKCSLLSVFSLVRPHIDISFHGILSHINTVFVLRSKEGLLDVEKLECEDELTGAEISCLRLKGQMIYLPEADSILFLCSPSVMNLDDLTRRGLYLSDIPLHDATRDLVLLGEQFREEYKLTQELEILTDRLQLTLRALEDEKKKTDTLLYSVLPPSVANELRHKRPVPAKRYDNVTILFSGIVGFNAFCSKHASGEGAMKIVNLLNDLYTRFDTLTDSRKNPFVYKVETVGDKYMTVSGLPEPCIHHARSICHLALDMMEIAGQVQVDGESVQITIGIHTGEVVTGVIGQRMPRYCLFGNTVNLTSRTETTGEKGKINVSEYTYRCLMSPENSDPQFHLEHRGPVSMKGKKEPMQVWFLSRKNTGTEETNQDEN
T1 sequence (P19686 1-690 partner): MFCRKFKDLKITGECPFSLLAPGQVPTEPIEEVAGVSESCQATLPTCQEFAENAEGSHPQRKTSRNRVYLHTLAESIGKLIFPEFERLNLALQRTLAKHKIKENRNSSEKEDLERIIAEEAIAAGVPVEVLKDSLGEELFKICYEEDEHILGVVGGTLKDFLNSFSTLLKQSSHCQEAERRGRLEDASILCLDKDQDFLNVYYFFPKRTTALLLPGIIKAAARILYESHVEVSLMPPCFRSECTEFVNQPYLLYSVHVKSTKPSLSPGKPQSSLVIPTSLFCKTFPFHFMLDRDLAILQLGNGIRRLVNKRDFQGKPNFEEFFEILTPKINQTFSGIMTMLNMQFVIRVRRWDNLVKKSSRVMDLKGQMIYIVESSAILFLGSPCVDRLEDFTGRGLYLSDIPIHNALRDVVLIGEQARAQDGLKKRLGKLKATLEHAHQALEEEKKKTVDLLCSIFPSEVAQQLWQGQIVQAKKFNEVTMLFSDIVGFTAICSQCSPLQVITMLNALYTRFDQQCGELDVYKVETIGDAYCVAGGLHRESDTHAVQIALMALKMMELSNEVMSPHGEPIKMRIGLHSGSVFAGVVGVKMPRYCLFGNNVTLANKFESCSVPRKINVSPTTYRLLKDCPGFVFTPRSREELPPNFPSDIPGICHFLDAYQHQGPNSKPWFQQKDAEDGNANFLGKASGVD
The data set is described as follows: Effect on a recombinant guanylate cyclase reporter cell line. Type of data set: cell-based. The protocol:
B-1. Effect on a Recombinant Guanylate Cyclase Reporter Cell Line
The cellular activity of the compounds according to the invention was determined using a recombinant guanylate cyclase reporter cell line, as described in F. Wunder et al., Anal. Biochem. 339, 104-112 (2005).

The nature of data set [2]: Pharmacokinetic parameters following intravenous and oral administration in rats. The note with it: for clearance: read-out: CLplasma (converted); for half-life: read-out: t½ (converted). Format: in vivo, male Wistar rats. Here is the method:
(§1) B-2. Determination of Pharmacokinetic Parameters Following Intravenous and Oral Administration
(§2) The pharmacokinetic parameters of the compounds according to the invention were determined in male Wistar rats and/or in female beagles and/or in cynomolgus monkeys and/or in male CD-1 mice. Intravenous administration in the case of mice and rats was carried out by means of a species-specific plasma/DMSO formulation, and in the case of dogs and monkeys by means of a water/PEG400/ethanol formulation. In all species, oral administration of the dissolved substance was performed via gavage, based on a water/PEG400/ethanol formulation.
(§3) An internal standard (which may also be a chemically unrelated substance) was added to the samples of the compounds of the invention, calibration samples and qualifiers, and there followed protein precipitation by means of acetonitrile in excess. Addition of a buffer solution matched to the LC conditions, and subsequent vortexing, was followed by centrifugation at 1000 g. The supernatant was analysed by LC-MS/MS using C18 reversed-phase columns and variable mobile phase mixtures. The substances were quantified via the peak heights or areas from extracted ion chromatograms of specific selected ion monitoring experiments.
(§4) The plasma concentration/time plots determined were used to calculate the pharmacokinetic parameters such as AUC, Cmax, t1/2 (terminal half-life), F (bioavailability), MRT (mean residence time) and CL (clearance), by means of a validated pharmacokinetic calculation program.
(§5) Since the substance quantification was performed in plasma, it was necessary to determine the blood/plasma distribution of the substance in order to be able to adjust the pharmacokinetic parameters correspondingly.
(§6) For this purpose, a defined amount of substance was incubated in K3 EDTA whole blood of the species in question in a rocking roller mixer for 20 min. After centrifugation at 1000 g, the plasma concentration was measured (by means of LC-MS/MS; see above) and determined by calculating the ratio of the Cblood/Cplasma value.

Data set [3] is described as follows: Pharmacokinetic parameters following intravenous and oral administration in dogs. Conditions: for half-life: read-out: t½ (converted). Type of data set: in vivo, female beagles. Here is the method:
as §1, §2, §3, §4, §5, §6

Where [4] appears, read: male, Wistar, rat, plasma, iv, intravenous administration.
Where [5] appears, read: male, Wistar, rat, plasma, iv, intravenous administration, read-out: MRT.
Setting [6] is: male, Wistar, rat, plasma, po, oral administration (p.o.), read-out: MRT.
[7] abbreviates: male, Wistar, rat, plasma, po, oral administration (p.o.).
The mark [8] stands for this setting: female, beagle, dog, plasma, intravenous administration (i.v.).
Where [9] appears, read: female, beagle, dog, plasma, oral administration (p.o.).

SMILES strings stand for the structures. Where a name gives a salt, the structure may show the parent alone. A value given as a limit tells only on which side of the number the result lay.

In general, EC50 refers to the midpoint of the concentration-response curve. The MRT is the average time that molecules of a dose stay in the body. Turning to `CC(C)CN1CCN(c2ccc(-c3ccc(Cl)cc3N3CCCC(n4ncc(C(=O)O)c4C(F)F)C3)cc2)CC1` (single isomer, unassigned) [Example 1, 1-[1-{4-Chloro-4′-[4-(2-methylpropyl)piperazin-1-yl][1,1′-biphenyl]-2-yl}piperidin-3-yl]-5-(difluoromethyl)-1H-pyrazole-4-carboxylic acid hydrochloride], in data set [1], the EC50 is 9.2 nM and the “MEC (minimum effective concentration)” value is 2.3 nM. For the same compound, the AUCnorm in data set [2] (intravenous administration) is 1.77 kg·h/L. Also, in data set [2] (setting [4]), the clearance was 9.33 mL/min/kg and the half-life was 1.64 h. For the same compound, in data set [2] (setting [5]), the MRT is 2.24 h. For the same compound, the MRT in data set [2] (setting [6]) is 6.28 h. For the same compound, the half-life in data set [2] (setting [7]) is 3.24 h. For the same compound, in data set [2] (oral administration (p.o.)), the AUCnorm stood at 0.57 kg·h/L and the F was determined as 31.4%.
Consider `CCCN1CCN(c2ccc(-c3ccc(Cl)cc3N3CCCC(n4ncc(C(=O)O)c4C(F)F)C3)cc2)CC1` (single isomer, unassigned) [Example 4, 1-{1-[4-Chloro-4′-(4-propylpiperazin-1-yl)[biphenyl]-2-yl]piperidin-3-yl}-5-(difluoromethyl)-1H-pyrazole-4-carboxylic acid hydrochloride], for which the EC50 in data set [1] amounted to 3.2 nM. Moreover, in data set [1], the “MEC (minimum effective concentration)” value came out at 0.3 nM. For the same compound, the AUCnorm in data set [2] (intravenous administration) turned out to be 1.40 kg·h/L; in data set [2] (oral administration (p.o.)), 0.84 kg·h/L. Moreover, the clearance in data set [2] (setting [4]) was 12 mL/min/kg. The MRT amounted to 2.62 h in data set [2] (setting [5]) and 5.91 h in data set [2] (setting [6]). The figures for the half-life in data set [2] (setting [4]) and in data set [2] (setting [7]) were 2.09 h and 3.02 h, respectively. Besides, the F in data set [2] (oral administration (p.o.)) was 59.9%.
For the compound `O=C(O)c1cnn(C2CCCN(c3cc(Cl)ccc3-c3ccc(N4CCN(CC5CC5)CC4)cc3)C2)c1C(F)F` (single isomer, unassigned) [Example 5, 1-(1-{4-Chloro-4′-[4-(cyclopropylmethyl)piperazin-1-yl][biphenyl]-2-yl}piperidin-3-yl)-5-(difluoromethyl)-1H-pyrazole-4-carboxylic acid hydrochloride], in data set [1], the EC50 came to 3.6 nM. Moreover, in data set [1], the “MEC (minimum effective concentration)” value is reported as under 0.3 nM. For the same compound, the AUCnorm in data set [2] (intravenous administration) amounted to 1.23 kg·h/L; in data set [2] (oral administration (p.o.)), 0.70 kg·h/L. The clearance in data set [2] (setting [4]) was 13.5 mL/min/kg. Further, the MRT in data set [2] (setting [5]) worked out at 2.88 h; in data set [2] (setting [6]), 7.53 h. In addition, the half-life in data set [2] (setting [4]) was 2.43 h; in data set [2] (setting [7]), 3.76 h. In data set [2] (oral administration (p.o.)), this compound had an F of 58.2%.
Broadly, the t½ is the time needed for the level to fall by half in the phase considered. High values mean slow decline, low ones rapid decline. For `O=C(O)c1cnn(C2CCCN(c3cc(Cl)ccc3-c3ccc(N4CCN(CC(F)(F)F)CC4)cc3)C2)c1C(F)F` (single isomer, unassigned) [Example 6, 1-[1-[5-Chloro-2-[4-[4-(2,2,2-trifluoroethyl)piperazin-1-yl]phenyl]phenyl]-3-piperidyl]-5-(difluoromethyl)pyrazole-4-carboxylic acid], in data set [1], the EC50 was 19.3 nM and the “MEC (minimum effective concentration)” value is recorded as 1.6 nM. Further, in data set [2] (intravenous administration), the AUCnorm is 2.29 kg·h/L, the CLplasma was 7.33 mL/min/kg, the MRT amounted to 4.16 h and the t½ is recorded as 5.13 h. In data set [2] (oral administration (p.o.)), the AUCnorm amounted to 2.11 kg·h/L, the F was 91.7%, the MRT is 14.2 h and the t½ came to 7.37 h.
For `O=C(O)c1cnn(C2CCCN(c3cc(Cl)ccc3-c3ccc(N4CCN(CC(F)(F)F)CC4)cc3)C2)c1C(F)F` (single isomer, unassigned) [Example 7, 1-[1-[5-Chloro-2-[4-[4-(2,2,2-trifluoroethyl)piperazin-1-yl]phenyl]phenyl]-3-piperidyl]-5-(difluoromethyl)pyrazole-4-carboxylic acid], in data set [1], the EC50 is 13.7 nM and the “MEC (minimum effective concentration)” value was found to be 1.6 nM. In data set [2] (intravenous administration), this compound had an AUCnorm of 7.23 kg·h/L and a CLplasma of 2.33 mL/min/kg. Besides, the MRT in data set [2] (setting [5]) was 4.41 h. In data set [2] (setting [4]), the half-life is 3.83 h. Further, the MRT in data set [2] (setting [6]) worked out at 7.32 h. In data set [2] (oral administration (p.o.)), this compound came in with an AUCnorm of 4.04 kg·h/L, an F of 56.1% and a t½ of 3.63 h.
As to `CC(C)CN1CCN(c2ccc(-c3ccc(Cl)cc3N3CCCC(n4ncc(C(=O)O)c4C(F)(F)F)C3)cc2)CC1` (single isomer, unassigned) [Example 8, 1-[1-{4-Chloro-4′-[4-(2-methylpropyl)piperazin-1-yl][1,1′-biphenyl]-2-yl}piperidin-3-yl]-5-(trifluoromethyl)-1H-pyrazole-4-carboxylic acid], in data set [1], the EC50 was determined as 40 nM and the “MEC (minimum effective concentration)” value came to 6.5 nM.
On the same counts, the results for `O=C(O)c1cnn(C2CCCN(c3cc(Cl)ccc3-c3ccc(N4CCN(CC(F)(F)F)CC4)cc3)C2)c1C(F)(F)F` (single isomer, unassigned) [Example 11, 1-[1-[5-Chloro-2-[4-[4-(2,2,2-trifluoroethyl)piperazin-1-yl]phenyl]phenyl]-3-piperidyl]-5-(trifluoromethyl)pyrazole-4-carboxylic acid] are 5.2 nM and 0.6 nM.
As for `O=C(O)c1cnn(-c2cccc(-c3cc(Cl)ccc3-c3ccc(N4CCN(CC5CC5)CC4)cc3)n2)c1C(F)(F)F` [Comparative Example 174 (WO2012/058132), reference compound], the MRT came to 7.23 h in data set [3] (setting [8]), 6.1 h in data set [3] (setting [9]), 2.78 h in data set [2] (setting [5]) and 8.4 h in data set [2] (setting [6]). The clearance in data set [3] (female, beagle, dog, plasma, intravenous administration (i.v.), read-out: CLplasma (converted)) is 3.33 mL/min/kg; in data set [2] (setting [4]) it was 21.7 mL/min/kg. Moreover, the half-life in data set [3] (setting [8]) is 10.8 h; in data set [3] (setting [9]), 7.05 h; in data set [2] (setting [4]), 2.33 h; in data set [2] (setting [7]), 3.6 h. Moreover, the AUCnorm in data set [3] (intravenous administration (i.v.)) was found to be 5.00 kg·h/L; in data set [3] (oral administration (p.o.)), 2.08 kg·h/L; in data set [2] (intravenous administration) it was 0.77 kg·h/L; in data set [2] (oral administration (p.o.)), 0.63 kg·h/L. Also, the F in data set [3] (oral administration (p.o.)) was 41.6%; in data set [2] (oral administration (p.o.)), 81.8%.
